Experimental data reported in patent US20250332173A1, “COMPOUNDS AND METHODS FOR MODULATING NUCLEIC ACID SPLICING” (REMIX THERAPEUTICS INC., priority 2021, published 2025).
pIC50: −log10 of the molar value. Like-named read-outs stand apart in the source and are kept apart here.

Key:
Type in all cases: cell-based, human
SMN2 mRNA = experiment: RT-qPCR splicing assay, SMN2 canonical junction (CJ) mRNA; conditions: Table 5 panel, canonical junction qPCR, compound concentration having 50% response in CJ decrease, read-out: SMN2 IC50 (decrease in CJ mRNA levels)
In short: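 A673 cells (DMEM/10% FBS) or K562 cells (IMDM/10% FBS) were treated 24 h at 37° C. with 11-point 3-fold dilutions (top 10 uM, ≤0.25% DMSO). Canonical-junction mRNA was quantified in lysates by RT-qPCR, normalized to GAPDH, GUSB or PPIA.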

MYB = experiment: HiBiT protein abundance assay, MYB HiBiT K562 cell line; conditions: HiBiT K562 cell line, 24 hours, top dose 10 μM; read-out: Effect on protein abundance, MYB (IC50 category)
In short: (§1)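 Tagged-protein abundance measured by split-NanoBiT luminescence after lysis, following 24 h compound exposure (37° C; 10 μM top, 3-fold, 10 points; DMSO ≤0.25%) of HiBiT knock-in K562 cells. Percent response vs DMSO and unmodified-cell controls; 4-parameter logistic interpolation at 50% gave IC50.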

HTT = experiment: HiBiT protein abundance assay, HTT HiBiT K562 cell line; conditions: HiBiT K562 cell line, 24 hours, top dose 10 μM; read-out: Effect on protein abundance, HTT (IC50 category)
In short: as §1

Target C = experiment: HiBiT protein abundance assay, Target C (Promega Nano-Glo HiBiT Lytic Detection System, knock-in K562 cell line); conditions: HiBiT K562 cell line, 24 hours, top dose 10 μM, read-out: Effect on protein abundance, Target C (IC50 category)
In short: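 Protein abundance was read by Nano-Glo HiBiT lytic luminescence after 24 h compound exposure (10-point, threefold series from 10 μM final) of HiBiT knock-in K562 cells. Parental K562 served as baseline; the 50%-abundance concentration was interpolated from a four-parameter logistic fit.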

| Compound | pIC50 (SMN2 mRNA; Homo sapiens) | pIC50 (MYB) | pIC50 (HTT) | pIC50 (Target C; Homo sapiens, K562, 24 h) | pIC50 (SMN2 mRNA) | pIC50 (Target C) |
| --- | --- | --- | --- | --- | --- | --- |
| Cc1cn2cc(-c3ccc4c(=O)n(C5CCNCC5)ncc4c3)ncc2n1 [Compound 255] | 6.00 to 7.00 | < 5.00 | < 5.00 | < 5.00 |  |  |
| Cc1cn2nc(-c3cc(F)c4c(=O)n(C5CCNCC5)cnc4c3)cc(C)c2n1 [Compound 243] | > 7.00 | > 7.00 | > 7.00 | > 7.00 |  |  |
| Cc1cn2cc(-c3ccc4c(c3)CCN(C3CCNCC3)C4=O)cc(C(F)(F)F)c2n1 [Compound 252] | 6.00 to 7.00 | 5.00 to 6.00 | < 5.00 | < 5.00 |  |  |
| Cn1cc2cc(-c3ccc4c(=O)n(C5CCNCC5)ncc4c3)cc(F)c2n1 [Compound 249] | 5.00 to 6.00 | 5.00 to 6.00 | 5.00 to 6.00 | 5.00 to 6.00 |  |  |
| Cc1cn2nc(-c3ccc4c(=O)n(C5CCNC5)ncc4c3)cc(C)c2n1 (centres unmarked) [Compound 264] | 6.00 to 7.00 | 5.00 to 6.00 | 5.00 to 6.00 | < 5.00 |  |  |
| Cc1cn2cc(-c3ccc4c(=O)n(C5CCNCC5)cnc4c3)c(C)cc2n1 [Compound 244] | 6.00 to 7.00 | < 5.00 | < 5.00 | < 5.00 |  |  |
| Cc1cn2nc(-c3ccc4c(=O)n(C5CCNCC5)ncc4c3)nc2c(C)n1 [Compound 259] | 6.00 to 7.00 | 6.00 to 7.00 | 6.00 to 7.00 | 6.00 to 7.00 |  |  |
| Cc1cn2cc(-c3ccc4c(=O)n(C5CCNCC5)ncc4c3)cc(F)c2n1 [Compound 248] | > 7.00 | > 7.00 | > 7.00 | 6.00 to 7.00 |  |  |
| Cc1cn2cc(-c3ccc4c(=O)n(C5CCNCC5)ncc4c3)cc(C)c2n1 [Compound 257] | > 7.00 | 6.00 to 7.00 | 6.00 to 7.00 | 6.00 to 7.00 |  |  |
| Cn1cc2ccc(-c3ccc4c(=O)n(C5CCNCC5)ncc4c3)cc2n1 [Compound 263] | < 5.00 | < 5.00 | < 5.00 | 5.00 to 6.00 |  |  |
| O=c1c2ccc(-c3cn[nH]c3)cc2cnn1C1CCNCC1 [Compound 261] | 5.00 to 6.00 | < 5.00 | < 5.00 | < 5.00 |  |  |
| Cc1cn2cc(-c3ccc4c(=O)n(C5CCNCC5)ncc4c3)cc(Cl)c2n1 [Compound 256] | > 7.00 | 6.00 to 7.00 | 6.00 to 7.00 | 6.00 to 7.00 |  |  |
| Cc1cc(-c2ccc3c(=O)n(C4CCNCC4)ncc3c2)cc2cn(C)nc12 [Compound 251] | > 7.00 | 6.00 to 7.00 | 6.00 to 7.00 | 6.00 to 7.00 |  |  |
| Cc1cn2cc(-c3ccc4c(=O)n(C5CCNCC5)ncc4c3)cc(C(F)(F)F)c2n1 [Compound 262] | > 7.00 | 6.00 to 7.00 | 5.00 to 6.00 | 5.00 to 6.00 |  |  |
| Cc1cn2cc(-c3ccc4c(=O)n(C5CCN(C)CC5)cnc4c3)c(C)cc2n1 [Compound 246] | 5.00 to 6.00 | 5.00 to 6.00 | 5.00 to 6.00 | 5.00 to 6.00 |  |  |
| Cc1nc2c(F)cc(-c3ccc4c(=O)n(C5CCNCC5)ncc4c3)cc2s1 [Compound 253] | 6.00 to 7.00 | 5.00 to 6.00 | 5.00 to 6.00 | 5.00 to 6.00 |  |  |
| Cc1cn2cc(-c3ccc4c(c3)CCN(C3CCNCC3)C4=O)cc(F)c2n1 [Compound 247] | > 7.00 | 6.00 to 7.00 | 6.00 to 7.00 | 5.00 to 6.00 |  |  |
| Cc1cn2nc(-c3ccc4c(=O)n(C5CCN(C)CC5)ncc4c3)cc(C)c2n1 [Compound 265] | > 7.00 | 6.00 to 7.00 | > 7.00 | 6.00 to 7.00 |  |  |
| Cc1cn2cc(-c3ccc4c(=O)n(C5CCNCC5)ncc4c3)c(C)cc2n1 [Compound 254] | 5.00 to 6.00 | 5.00 to 6.00 | 5.00 to 6.00 | 5.00 to 6.00 |  |  |
| Cc1nc2c(F)cc(-c3ccc4c(=O)n(C5CCNCC5)ncc4c3)cc2o1 [Compound 250] | > 7.00 | > 7.00 | > 7.00 | 6.00 to 7.00 |  |  |
| Cc1nc2c(F)cc(-c3ccc4c(=O)n(C5CCNCC5)cnc4c3)cc2o1 [Compound 245] | > 7.00 | 6.00 to 7.00 | 6.00 to 7.00 | 6.00 to 7.00 |  |  |
| Cc1cn2nc(-c3ccc4c(=O)n([C@@H]5CCNC6(CC6)C5)cnc4c3)cc(C)c2n1 [Compound 444] |  | 6.00 to 7.00 | > 7.00 |  | > 7.00 | 6.00 to 7.00 |
| Cc1cn2nc(-c3ccc4c(=O)n(C5CCNCC5)ncc4c3)cc2c(C)n1 [Compound 260] | 6.00 to 7.00 | 6.00 to 7.00 | 6.00 to 7.00 | 5.00 to 6.00 |  |  |
